Experiment [1] deals with T1, human Gcg receptor (Homo sapiens, UniProt P47871).
T1 construct: expressed in transfected cells; crude membranes
Briefly: [125I]-Glucagon binding (SPA), human Gcg receptor. To be noted: read-out: hGLcgR Ki, nM (SEM, n). Summed up: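 Cell pellets were lysed in hypotonic Tris buffer, pH 7.5, homogenized, and spun at low then high speed to give crude membranes. Ki was derived from the fitted IC50.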

In experiment [2] the target is T2, human GIP receptor (Homo sapiens, UniProt P48546).
T2 construct: expressed in transfected cells; crude membranes
T2 sequence (P48546 22-466): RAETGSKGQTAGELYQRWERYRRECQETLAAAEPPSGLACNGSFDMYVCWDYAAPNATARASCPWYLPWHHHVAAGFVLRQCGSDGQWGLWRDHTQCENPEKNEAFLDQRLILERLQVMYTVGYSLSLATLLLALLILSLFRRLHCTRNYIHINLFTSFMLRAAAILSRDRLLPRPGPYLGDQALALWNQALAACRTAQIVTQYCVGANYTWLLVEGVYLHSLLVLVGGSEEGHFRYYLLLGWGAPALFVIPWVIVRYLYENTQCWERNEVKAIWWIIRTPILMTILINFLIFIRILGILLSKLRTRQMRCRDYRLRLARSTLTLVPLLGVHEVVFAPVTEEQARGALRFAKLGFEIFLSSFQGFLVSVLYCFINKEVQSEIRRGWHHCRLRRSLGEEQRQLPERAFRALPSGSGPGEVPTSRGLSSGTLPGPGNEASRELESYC
Briefly: [125I]-GIP binding (SPA), human GIP receptor. The following applies: read-out: hGIPR Ki, nM (SEM, n).

In experiment [3] the target is human GLP-1 receptor (GLP-1R) (Homo sapiens, UniProt P43220). Put plainly: cAMP pharmacological functional assay in presence of casein, hGLP-1R. The format is cell-based. To be noted: HEK293 cells expressing hGLP-1R, 0.1% Casein, geometric mean; read-out: hGLP1R cAMP Rel EC50 nM (SEM, n).
Sequence of human GLP-1 receptor (GLP-1R) (P43220 24-463): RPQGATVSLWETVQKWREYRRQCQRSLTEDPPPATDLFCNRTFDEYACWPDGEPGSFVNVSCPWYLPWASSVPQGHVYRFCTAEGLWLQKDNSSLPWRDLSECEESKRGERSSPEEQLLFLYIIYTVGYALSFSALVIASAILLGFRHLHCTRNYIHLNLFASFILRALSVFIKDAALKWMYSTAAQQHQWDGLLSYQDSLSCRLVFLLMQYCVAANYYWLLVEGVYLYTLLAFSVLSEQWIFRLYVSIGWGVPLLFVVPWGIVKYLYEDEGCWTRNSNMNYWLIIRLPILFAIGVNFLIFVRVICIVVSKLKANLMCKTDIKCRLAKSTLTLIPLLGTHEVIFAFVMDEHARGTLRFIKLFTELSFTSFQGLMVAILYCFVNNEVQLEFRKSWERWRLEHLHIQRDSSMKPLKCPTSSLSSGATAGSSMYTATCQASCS
In experiment [4] the target is T3, gastric inhibitory peptide receptor (GIPR) (Homo sapiens, UniProt P48546).
T3 sequence (P48546 22-466): T2 sequence (P48546 22-466)
Briefly: cAMP pharmacological functional assay in presence of casein, hGIPR. The following applies: HEK293 cells expressing hGIPR, 0.1% Casein, geometric mean; read-out: hGIPR cAMP Rel EC50 nM (SEM, n). It is filed as cell-based.

Experiment [5] deals with human GLP-1R (Homo sapiens, UniProt P43220). Briefly: [125I]-GLP-1 binding (SPA), human GLP-1 receptor. On the set-up: expressed in transfected cells; crude membranes. To be noted: read-out: hGLP1R Ki, (nM) (SEM, n). The procedure, abridged:
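Assay buffer: HEPES 25 mM, pH 7.4, CaCl2 2.5 mM, MgCl2 1 mM, with EDTA-free protease inhibitors. Receptor came from crude cell membranes prepared by homogenization and centrifugation at 4° C. IC50s came from four-parameter fits (maximum, minimum, IC50, Hill slope) and were expressed as Ki geometric means with SEM.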

Numbered stars: 1 amine (or outer) side, 2 acyl side, 3 side chain; on linkers, the order of the positions; unused ones are H or OH. Square brackets hold non-standard residues; d marks the D form. Side chains are listed from the residue outwards. Peptide text beside a SMILES is read from it. * marks the point of attachment. C18 diacid = O=C(O)CCCCCCCCCCCCCCCCC(=O)*; αMePhe(2-F) = C[C@](N)(Cc1ccccc1F)C(=O)O; γGlu = O=C(O)[C@H](CCC(=O)[*:2])N[*:1]; αMeF = C[C@](N)(Cc1ccccc1)C(=O)O; 4Pal = N[C@@H](Cc1ccncc1)C(=O)O; αMeL = CC(C)C[C@](C)(N)C(=O)O; Orn = NCCC[C@H](N)C(=O)O; Dab = NCC[C@H](N)C(=O)O; AEEA = NCCOCCOCC(=O)O; Aib = CC(C)(N)C(=O)O Where only a bound is given, the exact number is not on record here.

Sequence of human GLP-1R (P43220 24-463): as above
T1 sequence (P47871 26-477): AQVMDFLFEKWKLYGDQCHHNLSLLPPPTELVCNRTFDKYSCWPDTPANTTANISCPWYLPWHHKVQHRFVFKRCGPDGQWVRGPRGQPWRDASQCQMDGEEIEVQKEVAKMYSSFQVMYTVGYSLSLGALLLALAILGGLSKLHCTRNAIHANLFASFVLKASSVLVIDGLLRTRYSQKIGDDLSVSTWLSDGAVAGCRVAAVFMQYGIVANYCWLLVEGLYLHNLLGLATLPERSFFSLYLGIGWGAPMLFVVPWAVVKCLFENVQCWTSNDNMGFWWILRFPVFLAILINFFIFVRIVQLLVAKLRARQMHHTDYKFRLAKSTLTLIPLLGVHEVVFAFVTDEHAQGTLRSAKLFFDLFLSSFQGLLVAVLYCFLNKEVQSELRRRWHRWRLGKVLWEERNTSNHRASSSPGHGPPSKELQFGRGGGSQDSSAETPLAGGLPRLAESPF

Consider `CC[C@H](C)[C@H](NC(=O)[C@H](CC(C)C)NC(=O)[C@H](Cc1ccc(O)cc1)NC(=O)[C@@H](CCC(=O)O)NC(=O)[C@@H](NC(=O)[C@H](Cc1ccccc1)NC(=O)[C@H](CCC(=O)O)NC(=O)C(C)(C)NC(=O)[C@H](CCC(N)=O)NC(=O)[C@H](C)NC(=O)[C@H](CCCCNC(=O)COCCOCCNC(=O)COCCOCCNC(=O)CC[C@H](NC(=O)CCCCCCCCCCCCCCCCC(=O)O)C(=O)O)NC(=O)[C@H](CCCCN)NC(=O)[C@H](CC(=O)O)NC(=O)[C@H](CC(C)C)NC(=O)C(C)(CC(C)C)NC(=O)[C@@H](NC(=O)[C@H](CO)NC(=O)[C@H](Cc1ccc(O)cc1)NC(=O)[C@H](CC(=O)O)NC(=O)[C@H](CO)NC(=O)[C@@H](NC(=O)C(C)(Cc1ccccc1F)NC(=O)[C@@H](NC(=O)CNC(=O)[C@H](CCC(=O)O)NC(=O)C(C)(C)NC(=O)[C@@H](N)Cc1ccc(O)cc1)[C@@H](C)O)[C@@H](C)O)[C@@H](C)CC)[C@@H](C)CC)C(=O)N[C@@H](CCC(=O)O)C(=O)NCC(=O)NCC(=O)N1CCC[C@H]1C(=O)N[C@@H](CO)C(=O)N[C@@H](CO)C(=O)NCC(=O)N[C@@H](C)C(=O)N1CCC[C@H]1C(=O)N1CCC[C@H]1C(=O)N1CCC[C@H]1C(=O)N[C@@H](CO)C(N)=O` (stereo partly shown) [Example 231], for which the Ki in experiment [1] worked out at 440 nM; in experiment [2], 0.0394 nM; in experiment [5], 3.03 nM. Besides, the EC50 was found to be 0.0611 nM in experiment [3] and 0.0253 nM in experiment [4].

As for `CC[C@H](C)[C@H](NC(=O)[C@H](CC(C)C)NC(=O)[C@H](Cc1ccc(O)cc1)NC(=O)[C@@H](CCC(=O)O)NC(=O)[C@@H](NC(=O)[C@H](Cc1ccccc1)NC(=O)[C@H](CCC(=O)O)NC(=O)C(C)(C)NC(=O)[C@H](CCC(N)=O)NC(=O)[C@H](C)NC(=O)[C@H](CCCCNC(=O)COCCOCCNC(=O)COCCOCCNC(=O)CC[C@H](NC(=O)CCCCCCCCCCCCCCCCC(=O)O)C(=O)O)NC(=O)[C@H](CCCN)NC(=O)[C@H](CC(=O)O)NC(=O)[C@H](CC(C)C)NC(=O)[C@](C)(CC(C)C)NC(=O)[C@@H](NC(=O)[C@H](CO)NC(=O)[C@H](Cc1ccncc1)NC(=O)[C@H](CC(=O)O)NC(=O)[C@H](CO)NC(=O)[C@@H](NC(=O)[C@](C)(Cc1ccccc1F)NC(=O)[C@@H](NC(=O)CNC(=O)[C@H](CCC(=O)O)NC(=O)C(C)(C)NC(=O)[C@@H](N)Cc1ccc(O)cc1)[C@@H](C)O)[C@@H](C)O)[C@@H](C)CC)[C@@H](C)CC)C(=O)N[C@@H](CCC(=O)O)C(=O)NCC(=O)NCC(=O)N1CCC[C@H]1C(=O)N[C@@H](CO)C(=O)N[C@@H](CO)C(=O)NCC(=O)N[C@@H](C)C(=O)N1CCC[C@H]1C(=O)N1CCC[C@H]1C(=O)N1CCC[C@H]1C(=O)N[C@@H](CO)C(N)=O` [Example 232] (H-Y[Aib]EGT[αMePhe(2-F)]TSD[4Pal]SI[αMeL]LD[Orn]K([AEEA-AEEA-γGlu-C18 diacid])AQ[Aib]EFI[dE]YLIEGGPSSGAPPPS-NH2), the Ki in experiment [1] was above 1150 nM; in experiment [2], 0.0544 nM; in experiment [5] it was 5.62 nM. Besides, the EC50 in experiment [3] was 0.0724 nM; in experiment [4], 0.027 nM.

On to `CC[C@H](C)[C@H](NC(=O)[C@H](CC(C)C)NC(=O)[C@H](Cc1ccc(O)cc1)NC(=O)[C@@H](CCC(=O)O)NC(=O)[C@@H](NC(=O)[C@H](Cc1ccccc1)NC(=O)[C@H](CCC(=O)O)NC(=O)C(C)(C)NC(=O)[C@H](CCC(N)=O)NC(=O)[C@H](C)NC(=O)[C@H](CCCCNC(=O)COCCOCCNC(=O)COCCOCCNC(=O)CC[C@H](NC(=O)CCCCCCCCCCCCCCCCC(=O)O)C(=O)O)NC(=O)[C@H](CCN)NC(=O)[C@H](CC(=O)O)NC(=O)[C@H](CC(C)C)NC(=O)[C@](C)(CC(C)C)NC(=O)[C@@H](NC(=O)[C@H](CO)NC(=O)[C@H](Cc1ccncc1)NC(=O)[C@H](CC(=O)O)NC(=O)[C@H](CO)NC(=O)[C@@H](NC(=O)[C@](C)(Cc1ccccc1F)NC(=O)[C@@H](NC(=O)CNC(=O)[C@H](CCC(=O)O)NC(=O)C(C)(C)NC(=O)[C@@H](N)Cc1ccc(O)cc1)[C@@H](C)O)[C@@H](C)O)[C@@H](C)CC)[C@@H](C)CC)C(=O)N[C@@H](CCC(=O)O)C(=O)NCC(=O)NCC(=O)N1CCC[C@H]1C(=O)N[C@@H](CO)C(=O)N[C@@H](CO)C(=O)NCC(=O)N[C@@H](C)C(=O)N1CCC[C@H]1C(=O)N1CCC[C@H]1C(=O)N1CCC[C@H]1C(=O)N[C@@H](CO)C(N)=O` [Example 233] (H-Y[Aib]EGT[αMePhe(2-F)]TSD[4Pal]SI[αMeL]LD[Dab]K([AEEA-AEEA-γGlu-C18 diacid])AQ[Aib]EFI[dE]YLIEGGPSSGAPPPS-NH2), for which the results for the Ki in experiment [1], in experiment [2] and in experiment [5] were above 1150 nM, 0.0445 nM and 5.99 nM, respectively. The EC50 in experiment [3] was 0.0549 nM; in experiment [4], 0.0288 nM.

For the compound `CC[C@H](C)[C@H](NC(=O)[C@H](CC(C)C)NC(=O)[C@H](Cc1ccc(O)cc1)NC(=O)[C@@H](CCC(=O)O)NC(=O)[C@@H](NC(=O)[C@H](Cc1ccccc1)NC(=O)[C@H](CCC(=O)O)NC(=O)C(C)(C)NC(=O)[C@H](CCC(N)=O)NC(=O)[C@H](C)NC(=O)[C@H](CCCCNC(=O)COCCOCCNC(=O)COCCOCCNC(=O)CC[C@H](NC(=O)CCCCCCCCCCCCCCCCC(=O)O)C(=O)O)NC(=O)[C@H](CCN)NC(=O)[C@H](CC(=O)O)NC(=O)[C@H](CC(C)C)NC(=O)[C@H](CC(C)C)NC(=O)[C@@H](NC(=O)[C@H](CO)NC(=O)[C@H](Cc1ccncc1)NC(=O)[C@H](CC(=O)O)NC(=O)[C@H](CO)NC(=O)[C@@H](NC(=O)[C@](C)(Cc1ccccc1F)NC(=O)[C@@H](NC(=O)CNC(=O)[C@H](CCC(=O)O)NC(=O)C(C)(C)NC(=O)[C@@H](N)Cc1ccc(O)cc1)[C@@H](C)O)[C@@H](C)O)[C@@H](C)CC)[C@@H](C)CC)C(=O)N[C@@H](CCC(=O)O)C(=O)NCC(=O)NCC(=O)N1CCC[C@H]1C(=O)N[C@@H](CO)C(=O)N[C@@H](CO)C(=O)NCC(=O)N[C@@H](C)C(=O)N1CCC[C@H]1C(=O)N1CCC[C@H]1C(=O)N1CCC[C@H]1C(=O)N[C@@H](CO)C(N)=O` [Example 234] (H-Y[Aib]EGT[αMePhe(2-F)]TSD[4Pal]SILLD[Dab]K([AEEA-AEEA-γGlu-C18 diacid])AQ[Aib]EFI[dE]YLIEGGPSSGAPPPS-NH2), the Ki is above 1100 nM in experiment [1], 0.0563 nM in experiment [2] and 10.9 nM in experiment [5]. The results for the EC50 in experiment [3] and in experiment [4] were 0.0926 nM and 0.0372 nM, respectively.

On to `CC[C@H](C)[C@H](NC(=O)[C@H](CC(C)C)NC(=O)[C@H](Cc1ccc(O)cc1)NC(=O)[C@@H](CCC(=O)O)NC(=O)[C@@H](NC(=O)[C@H](Cc1ccccc1)NC(=O)[C@H](CCC(=O)O)NC(=O)C(C)(C)NC(=O)[C@H](CCC(N)=O)NC(=O)[C@H](C)NC(=O)[C@H](CCCCNC(=O)COCCOCCNC(=O)COCCOCCNC(=O)CC[C@H](NC(=O)CCCCCCCCCCCCCCCCC(=O)O)C(=O)O)NC(=O)[C@H](CCN)NC(=O)[C@H](CC(=O)O)NC(=O)[C@H](CC(C)C)NC(=O)[C@](C)(CC(C)C)NC(=O)[C@@H](NC(=O)[C@H](CO)NC(=O)[C@H](Cc1ccncc1)NC(=O)[C@H](CC(=O)O)NC(=O)[C@H](CO)NC(=O)[C@@H](NC(=O)[C@](C)(Cc1ccccc1)NC(=O)[C@@H](NC(=O)CNC(=O)[C@H](CCC(=O)O)NC(=O)C(C)(C)NC(=O)[C@@H](N)Cc1ccc(O)cc1)[C@@H](C)O)[C@@H](C)O)[C@@H](C)CC)[C@@H](C)CC)C(=O)N[C@@H](CCC(=O)O)C(=O)NCC(=O)NCC(=O)N1CCC[C@H]1C(=O)N[C@@H](CO)C(=O)N[C@@H](CO)C(=O)NCC(=O)N[C@@H](C)C(=O)N1CCC[C@H]1C(=O)N1CCC[C@H]1C(=O)N1CCC[C@H]1C(=O)N[C@@H](CO)C(N)=O` [Example 235] (H-Y[Aib]EGT[αMeF]TSD[4Pal]SI[αMeL]LD[Dab]K([AEEA-AEEA-γGlu-C18 diacid])AQ[Aib]EFI[dE]YLIEGGPSSGAPPPS-NH2), for which the Ki in experiment [1] was above 1200 nM; in experiment [2] it was 0.0581 nM; in experiment [5], 7.65 nM. Moreover, the EC50 came to 0.136 nM in experiment [3] and 0.0372 nM in experiment [4].

What is called Ki is a measure of affinity in units of concentration, obtained from inhibition or displacement. For orientation: EC50 means the concentration giving half of the maximal effect.
